The IC50 is the midpoint of a concentration-inhibition curve.

Bounds are passed on as bounds.

Experimental findings from patent US10233191B2, “Fused piperidine amides as modulators of ion channels” (Vertex Pharmaceuticals Incorporated, priority 2013, dated 2019) are described below.

This assay deals with T1, NaV 1.7 (Homo sapiens, UniProt Q15858).
T1 construct: expressed in transfected cells; host or cells: HEK cells
T1 sequence (Q15858 whole entry): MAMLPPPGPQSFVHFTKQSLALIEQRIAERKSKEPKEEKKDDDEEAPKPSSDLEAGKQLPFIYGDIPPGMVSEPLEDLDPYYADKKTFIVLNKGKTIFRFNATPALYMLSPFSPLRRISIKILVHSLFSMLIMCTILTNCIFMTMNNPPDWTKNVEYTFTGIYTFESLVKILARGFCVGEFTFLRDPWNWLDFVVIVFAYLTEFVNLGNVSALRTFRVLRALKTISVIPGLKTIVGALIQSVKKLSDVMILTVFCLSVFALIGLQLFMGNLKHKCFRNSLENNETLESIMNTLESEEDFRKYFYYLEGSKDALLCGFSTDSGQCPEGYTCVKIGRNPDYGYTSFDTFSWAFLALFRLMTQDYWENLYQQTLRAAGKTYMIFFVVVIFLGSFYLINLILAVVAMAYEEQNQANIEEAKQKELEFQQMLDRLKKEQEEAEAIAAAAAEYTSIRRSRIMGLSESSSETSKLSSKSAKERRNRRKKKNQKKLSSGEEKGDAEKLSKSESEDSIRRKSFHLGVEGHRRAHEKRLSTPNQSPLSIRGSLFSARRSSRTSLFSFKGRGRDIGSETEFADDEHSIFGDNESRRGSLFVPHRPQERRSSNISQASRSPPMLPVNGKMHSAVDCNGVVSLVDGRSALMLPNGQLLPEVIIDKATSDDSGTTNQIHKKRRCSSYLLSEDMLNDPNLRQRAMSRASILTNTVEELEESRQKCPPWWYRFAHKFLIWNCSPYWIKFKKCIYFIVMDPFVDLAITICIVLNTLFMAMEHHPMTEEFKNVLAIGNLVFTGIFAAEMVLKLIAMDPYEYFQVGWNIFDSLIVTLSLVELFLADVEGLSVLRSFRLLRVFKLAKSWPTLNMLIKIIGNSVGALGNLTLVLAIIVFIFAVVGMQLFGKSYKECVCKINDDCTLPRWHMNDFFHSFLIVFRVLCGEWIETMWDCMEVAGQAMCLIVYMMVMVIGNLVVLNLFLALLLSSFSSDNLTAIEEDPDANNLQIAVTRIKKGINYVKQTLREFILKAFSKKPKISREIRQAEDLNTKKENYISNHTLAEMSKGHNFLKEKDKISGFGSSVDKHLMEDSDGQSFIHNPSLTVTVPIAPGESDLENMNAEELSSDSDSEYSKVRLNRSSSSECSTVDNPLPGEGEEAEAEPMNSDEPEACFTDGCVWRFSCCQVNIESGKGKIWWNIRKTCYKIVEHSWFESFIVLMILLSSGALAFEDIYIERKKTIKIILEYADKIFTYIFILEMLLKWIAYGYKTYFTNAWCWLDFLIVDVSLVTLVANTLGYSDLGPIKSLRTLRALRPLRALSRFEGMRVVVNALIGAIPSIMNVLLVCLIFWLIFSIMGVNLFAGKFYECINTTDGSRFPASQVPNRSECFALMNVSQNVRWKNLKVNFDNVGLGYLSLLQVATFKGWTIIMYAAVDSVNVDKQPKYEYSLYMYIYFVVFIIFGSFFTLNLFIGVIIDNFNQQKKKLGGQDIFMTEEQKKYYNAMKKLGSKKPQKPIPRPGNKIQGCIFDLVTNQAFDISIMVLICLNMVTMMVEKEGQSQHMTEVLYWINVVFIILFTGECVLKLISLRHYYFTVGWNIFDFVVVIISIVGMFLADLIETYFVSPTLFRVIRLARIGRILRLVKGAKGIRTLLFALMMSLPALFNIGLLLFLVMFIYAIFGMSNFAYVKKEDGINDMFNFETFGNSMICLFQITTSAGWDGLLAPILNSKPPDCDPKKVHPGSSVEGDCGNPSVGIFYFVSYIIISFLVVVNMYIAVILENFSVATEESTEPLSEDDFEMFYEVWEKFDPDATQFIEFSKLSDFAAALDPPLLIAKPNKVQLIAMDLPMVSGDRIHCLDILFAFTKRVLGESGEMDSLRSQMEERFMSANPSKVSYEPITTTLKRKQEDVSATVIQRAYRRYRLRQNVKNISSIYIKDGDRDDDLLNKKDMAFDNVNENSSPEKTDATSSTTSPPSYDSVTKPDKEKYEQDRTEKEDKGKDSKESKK
The experiment in a line: E-VIPR optical membrane potential assay with electrical stimulation. It counts as cell-based. Conditions: active against one or more sodium channels; assay/subtype not specified in Table 4; read-out: IC50 Binned Activity Data. From the text:
E-VIPR Optical Membrane Potential Assay Method with Electrical Stimulation
Sodium channels are voltage-dependent proteins that can be activated by inducing membrane voltage changes by applying electric fields. The electrical stimulation instrument and methods of use are described in Ion Channel Assay Methods PCT/US01/21652, herein incorporated by reference and are referred to as E-VIPR. The instrument comprises a microtiter plate handler, an optical system for exciting the coumarin dye while simultaneously recording the coumarin and oxonol emissions, a waveform generator, a current- or voltage-controlled amplifier, and a device for inserting electrodes in well. Under integrated computer control, this instrument passes user-programmed electrical stimulus protocols to cells within the wells of the microtiter plate.
24 hours before the assay on E-VIPR, HEK cells expressing human NaV subtype, like NaV 1.7, are seeded in 384-well poly-lysine coated plates at 15,000-20,000 cells per well. Other subtypes are performed in an analogous mode in a cell line expressing the NaV of interest. HEK cells are grown in media (exact composition is specific to each cell type and NaV subtype) supplemented with 10% FBS (Fetal Bovine Serum, qualified; GibcoBRL #16140-071) and 1% Pen-Strep (Penicillin-Streptomycin; GibcoBRL #15140-122). Cells are grown in vented cap flasks, in 90% humidity and 10% CO2, to 100% confluence. They are usually split by trypsinization 1:10 or 1:20, depending on scheduling needs, and grown for 2-3 days before the next split.
• 100 mg/mL Pluronic F-127 (Sigma #P2443), in dry DMSO • Compound Plates: 384-well round bottom plate, e.g. Corning 384-well Polypropylene Round Bottom #3656 • Cell Plates: 384-well tissue culture treated plate, e.g. Greiner #781091-1B • 10 mM DiSBAC6(3) (Aurora #00-100-010) in dry DMSO • 10 mM CC2-DMPE (Aurora #00-100-008) in dry DMSO • 200 mM ABSC1 in H2O
Bath1 buffer. Glucose 10 mM (1.8 g/L), Magnesium Chloride (Anhydrous), 1 mM (0.095 g/L), Calcium Chloride, 2 mM (0.222 g/L), HEPES 10 mM (2.38 g/L), Potassium Chloride, 4.5 mM (0.335 g/L), Sodium Chloride 160 mM (9.35 g/L).
Hexyl Dye Solution: Bath1 Buffer+0.5% β-cyclodextrin (make this prior to use, Sigma #C4767), 8 μM CC2-DMPE+2.5 μM DiSBAC6(3). To make the solution Add volume of 10% Pluronic F127 stock equal to volumes of CC2-DMPE+DiSBAC6(3). The order of preparation is first mix Pluronic and CC2-DMPE, then add DiSBAC6(3) while vortexing, then add Bath1+β-Cyclodextrin.
1) Pre-spot compounds (in neat DMSO) into compound plates. Vehicle control (neat DMSO), the positive control (20 mM DMSO stock tetracaine, 125 μM final in assay) and test compounds are added to each well at 160× desired final concentration in neat DMSO. Final compound plate volume will be 80 μL (80-fold intermediate dilution from 1 μL DMSO spot; 160-fold final dilution after transfer to cell plate). Final DMSO concentration for all wells in assay is 0.625%.
2) Prepare Hexyl Dye Solution.
3) Prepare cell plates. On the day of the assay, medium is aspirated and cells are washed three times with 100 μL of Bath1 Solution, maintaining 25 μL residual volume in each well.
4) Dispense 25 μL per well of Hexyl Dye Solution into cell plates. Incubate for 20-35 minutes at room temp or ambient conditions.
5) Dispense 80 μL per well of Bath1 into compound plates. Acid Yellow-17 (1 mM) is added and Potassium Chloride can be altered from 4.5 to 20 mM depending on the NaV subtype and assay sensitivity.
6) Wash cell plates three times with 100 μL per well of Bath1, leaving 25 μL of residual volume. Then transfer 25 uL per well from Compound Plates to Cell Plates. Incubate for 20-35 minutes at room temp/ambient condition
7) Read Plate on E-VIPR. Use the current-controlled amplifier to deliver stimulation wave pulses for typically 9 seconds and a scan rate of 400 Hz. A pre-stimulus recording is performed for 0.5 seconds to obtain the un-stimulated intensities baseline. […]
In the case of `COc1cc(C(=O)N2CC[C@]3(c4ncccc4F)OCOC3C2)ccc1OCC1CC(F)(F)C1` (stereo partly drawn) [Compound 1], the IC50 is at most 2 µM. The same measure for `Cc1cc(C(=O)N2CC[C@]3(c4cc(C(F)(F)F)ccn4)OCOC3C2)ccc1OCC(C)(C)F` (stereo partly drawn) [Compound 2]: at most 2 µM; for `COc1ccnc([C@]23CCN(C(=O)c4ccc(OCC(F)(F)C(F)F)c(OC)c4)CC2OCO3)c1` (stereo partly drawn) [Compound 3]: at most 2 µM; for `COc1cc(C(=O)N2CC[C@]3(c4cc(F)cc(F)c4)OCOC3C2)ccc1OCCOC(F)(F)F` (stereo partly drawn) [Compound 4]: at most 2 µM. Take `Cc1cc(C(=O)N2CC[C@]3(c4ncccn4)OCOC3C2)ccc1OC(C)C` (stereo partly drawn) [Compound 5]: the IC50 was over 5 µM. For `COc1cc(C(=O)N2CC[C@@]3(c4nccs4)OCOC3C2)ccc1OCC(C)(C)F` (stereo partly drawn) [Compound 6], the IC50 was over 5 µM. As to `COc1cc(C(=O)N2CC[C@]3(c4ncccn4)OCOC3C2)ccc1OCC(C)(C)F` (stereo partly drawn) [Compound 7], the 50% inhibitory concentration (IC50) is over 5 µM. For `COc1cc(C(=O)N2CC[C@@]3(c4ccccc4)OCOC3C2)ccc1OCC(C)(C)O` (stereo partly drawn) [Compound 8], the 50% inhibitory concentration (IC50) was over 5 µM. The same measure for `O=C(c1ccc(O)c(Cl)c1)N1CC[C@]2(c3ccccn3)OCOC2C1` (stereo partly drawn) [Compound 9]: over 5 µM; for `CC(C)Oc1ccc(C(=O)N2CCC3(c4ccccc4)CC3C2)cn1` (stereo not drawn) [Compound 10]: over 5 µM. The same measure for `COc1c(F)cccc1C(=O)N1CCC2(c3ccccc3)CC2C1` (stereo not drawn) [Compound 11]: over 5 µM; for `COc1cc(C(=O)N2CC[C@]3(c4ncccn4)OCOC3C2)ccc1OCCOC(F)(F)F` (stereo partly drawn) [Compound 12]: over 5 µM.

On to `Cc1cc(C(=O)N2CCC3(c4ccccc4)OCC3C2)ccc1OC(C)C` (stereo not drawn) [Compound 13], for which the 50% inhibitory concentration (IC50) is over 5 µM. For the compound `COc1ccc(C(=O)N2CCC3(c4ccccc4)CC3C2)nc1C` (stereo not drawn) [Compound 14], the IC50 lay within 2 to 5 µM.

For `CCS(=O)(=O)c1ccc(C(=O)N2CCC3(c4ccccc4)CC3C2)cc1C` (stereo not drawn) [Compound 15], the IC50 is 2 to 5 µM.

Regarding `CC(C)Oc1ccc(C(=O)N2CCC3(c4ccccc4)CC3C2)cc1F` (stereo not drawn) [Compound 16], the concentration for half-maximal inhibition (IC50) was 2 to 5 µM. The result for `CC(C)(O)COc1ccc(C(=O)N2CC[C@@]3(c4nccs4)OCOC3C2)cc1Cl` (stereo partly drawn) [Compound 17] reads 2 to 5 µM; that for `Cc1cc(C(=O)N2CCC3(c4ccccc4)CC3C2)cnc1OC(C)C` (stereo not drawn) [Compound 18], 2 to 5 µM.

Regarding `CC(C)Oc1ccc(C(=O)N2CCC3(c4ccccc4)CC3C2)c(F)c1` (stereo not drawn) [Compound 19], the half-inhibitory concentration (IC50) lay within 2 to 5 µM.

For the compound `O=C(c1cccc2c1OCC2)N1CCC2(c3ccccc3)CC2C1` (stereo not drawn) [Compound 20], the IC50 was 2 to 5 µM. The same measure for `CC(C)COc1ccc(C(=O)N2CCC3(c4ccccc4)CC3C2)nc1` (stereo not drawn) [Compound 21]: 2 to 5 µM; for `CC(C)(O)COc1ccc(C(=O)N2CC[C@]3(c4nccs4)OCOC3C2)cc1Cl` (stereo partly drawn) [Compound 22]: 2 to 5 µM; for `COc1cc(C(=O)N2CC[C@]3(c4ccccn4)OCOC3C2)ccc1OCC(C)(C)F` (stereo partly drawn) [Compound 23]: 2 to 5 µM. The result for `COc1cc(C(=O)N2CC[C@]3(c4nccs4)OCOC3C2)ccc1OCC(C)(C)F` (stereo partly drawn) [Compound 24] reads 2 to 5 µM. The same measure for `Cc1cc(C(=O)N2CC[C@]3(c4ccccn4)OCOC3C2)ccc1OCC(C)(C)O` (stereo partly drawn) [Compound 25]: 2 to 5 µM; for `O=C(c1ccc(S(=O)(=O)NC2CC2)cc1)N1CCC2(c3ccccc3)CC2C1` (stereo not drawn) [Compound 26]: 2 to 5 µM; for `Cc1cc(C(=O)N2CC[C@]3(c4ncccn4)OCOC3C2)ccc1OCC(C)(C)F` (stereo partly drawn) [Compound 27]: at most 2 µM. For `O=C(c1ccc(C2(O)CCC2)cc1)N1CCC2(c3ccccc3)CC2C1` (stereo not drawn) [Compound 28], the IC50 was at most 2 µM. The same measure for `CC(C)(O)c1ccc(C(=O)N2CCC3(c4ccccc4)CC3C2)cc1` (stereo not drawn) [Compound 29]: at most 2 µM; for `Cc1cc(C(=O)N2CC[C@@]3(c4nccs4)OCOC3C2)ccc1OCC(C)(C)O` (stereo partly drawn) [Compound 30]: at most 2 µM.

On to `Cc1cc(C(=O)N2CC[C@]3(c4nccs4)OCOC3C2)ccc1OCC(C)(C)O` (stereo partly drawn) [Compound 31], for which the IC50 is at most 2 µM. The result for `COc1cc(C(=O)N2CC[C@]3(c4ccc(F)cc4)OCOC3C2)ccc1COCCC(F)(F)F` (stereo partly drawn) [Compound 32] reads at most 2 µM; that for `O=C(c1cccc2cccnc12)N1CCC2(c3ccccc3)OCC2C1` (stereo not drawn) [Compound 33], at most 2 µM; that for `COc1cccnc1[C@]12CCN(C(=O)c3ccc(OCC(C)(C)F)c(C)c3)CC1OCO2` (stereo partly drawn) [Compound 34], at most 2 µM. The result for `CC(C)Oc1ccc(C(=O)N2CCC3(c4ccccc4)CC3C2)cc1C#N` (stereo not drawn) [Compound 35] reads at most 2 µM; that for `COc1cc(C(=O)N2CC[C@@]3(c4ccccc4)OCOC3C2)ccc1OCC(C)(C)F` (stereo partly drawn) [Compound 36], at most 2 µM.

Take `CC(C)(O)Cc1ccc(C(=O)N2CCC3(c4ccccc4)CC3C2)cc1F` (stereo not drawn) [Compound 37]: the 50% inhibitory concentration (IC50) is at most 2 µM.

In the case of `COc1cc(C(=O)N2CC[C@]3(c4ccc(F)cc4)OCOC3C2)ccc1OCC(C)(C)F` (stereo partly drawn) [Compound 38], the half-maximal inhibitory concentration (IC50) is at most 2 µM. Take `COc1cc(C(=O)N2CC[C@]3(c4cscn4)OCOC3C2)ccc1OCCOC(F)(F)F` (stereo partly drawn) [Compound 39]: the 50% inhibitory concentration (IC50) was over 5 µM.

On to `COc1cc(C(=O)N2CC[C@]3(c4ccccn4)OCOC3C2)cc(F)c1OCCC(F)(F)F` (stereo partly drawn) [Compound 40], for which the concentration for half-maximal inhibition (IC50) was at most 2 µM. The same measure for `COc1cc(C(=O)N2CC[C@]3(c4ncccc4OC)OCOC3C2)ccc1OCCOC(F)(F)F` (stereo partly drawn) [Compound 41]: at most 2 µM; for `COc1cc(C(=O)N2CC[C@]3(c4ccccc4)OCOC3C2)ccc1OCC(C)(C)O` (stereo partly drawn) [Compound 42]: at most 2 µM.

In the case of `O=C(c1cccc2cccnc12)N1CC[C@@]2(c3ccccc3)OCOC2C1` (stereo partly drawn) [Compound 43], the concentration for half-maximal inhibition (IC50) was in the range of 2 to 5 µM. The same measure for `Cc1cc(C(=O)N2CCC3(c4ccc(F)cc4)CC3C2)ccc1OCC(C)(C)O` (stereo not drawn) [Compound 44]: at most 2 µM; for `Cc1cc(C(=O)N2CC[C@]3(c4ccccc4)OCOC3C2)ccc1C(C)(C)O` (stereo partly drawn) [Compound 45]: at most 2 µM; for `COc1cc(C(=O)N2CC[C@@]3(c4ccn(C)n4)OCOC3C2)ccc1OCCOC(F)(F)F` (stereo partly drawn) [Compound 46]: at most 2 µM. The same measure for `COc1cc(C(=O)N2CC[C@@]3(c4ccc(F)cc4)OCOC3C2)ccc1OCC(C)(C)F` (stereo partly drawn) [Compound 47]: at most 2 µM; for `COc1cc(C(=O)N2CC[C@@]3(c4ccc(F)cc4)OCOC3C2)ccc1COCCC(F)(F)F` (stereo partly drawn) [Compound 48]: at most 2 µM. The result for `Cc1cc(C(=O)N2CC[C@@]3(c4ccccc4)OCOC3C2)ccc1C(C)(C)O` (stereo partly drawn) [Compound 49] reads over 5 µM. Consider `COc1cc(C(=O)N2CC[C@]3(c4ccccn4)OCOC3C2)ccc1COCC(F)(F)F` (stereo partly drawn) [Compound 50], for which the IC50 was at most 2 µM. The result for `O=C(c1ccc2c(c1)OCC(COC(F)(F)F)O2)N1CC[C@]2(c3ccccc3)OCOC2C1` (stereo partly drawn) [Compound 51] reads 2 to 5 µM.
